In publication PMC4124873, “Photo-antagonism of the GABAA receptor” (Nature Communications, 2014):
Several values for one entry are separate records, joined by “and”; a condition that tells them apart may be missing. Equal values may be shown once. Read-outs that look alike come from different tables or passages of the source.

How the values were obtained:
[1] = molecular target: T1, α1R119Qβ2R207Qγ2 GABAA receptor (Mus musculus, UniProt P62812+P63137, R146Q/R231Q)
[2] = test system: synaptic GABAA receptors of cerebellar granule cells; experiment: sIPSCs in cultured cerebellar granule cells after UV photoactivation; conditions: 10 μM GZ-B1, one UV cycle
α1β2γ2 GABAA receptor [3] = molecular target: T2, α1β2γ2 GABAA receptor (Mus musculus, UniProt P62812+P63137); experiment: cell-based; conditions: HEK293, read-out: maximum GABA current after UV in the presence of GZ-B1, % of control
α1β2γ2 GABAA receptor [4] = molecular target: T2, α1β2γ2 GABAA receptor; experiment: Schild analysis of competitive antagonism in HEK cells
[5] = molecular target: T3, α1β2γ2 (wt) GABAA receptor (Mus musculus, UniProt P62812+P63137); experiment: cell-based
[6] = molecular target: T4, α1R84Qβ2R207Qγ2 GABAA receptor (Mus musculus, UniProt P62812+P63137, R111Q/R231Q); experiment: cell-based
[7] = molecular target: T5, α1R84Qβ2γ2 GABAA receptor (Mus musculus, UniProt P62812+P63137, R111Q); experiment: cell-based; conditions: HEK293, read-out: maximum GABA current after UV in the presence of GZ-B1, % of control
[8] = molecular target: T5, α1R84Qβ2γ2 GABAA receptor; experiment: cell-based
[9] = molecular target: T6, α1R84+119Qβ2D162+163Nγ2 GABAA receptor (Mus musculus, UniProt P62812+P63137, D186N/D187N/R111Q/R146Q); experiment: cell-based
[10] = molecular target: T7, α1R119Qβ2E155Q+R207Qγ2 GABAA receptor (Mus musculus, UniProt P62812+P63137, E179Q/R146Q/R231Q); experiment: cell-based
[11] = molecular target: T1, α1R119Qβ2R207Qγ2 GABAA receptor; experiment: cell-based
[12] = molecular target: T4, α1R84Qβ2R207Qγ2 GABAA receptor; conditions: α1R84Qβ2R207Qγ2 double mutant
[13] = molecular target: α1R119Qβ2E155Qγ2 GABAA receptor (Mus musculus, UniProt P62812+P63137, E179Q/R146Q); experiment: cell-based
α3β3γ2 GABAA receptor = molecular target: T8, α3β3γ2 GABAA receptor (Mus musculus, UniProt P26049+P63080); experiment: GZ-B1 inhibition of GABA EC50 responses, receptor subtype selectivity in HEK cells; assay type: cell-based, murine; conditions: α3β3γ2, GABA EC50 response, ANOVA Dunnett
T8 construct: expressed in transfected cells; host or cells: HEK cells
Text: (§1) […]; pH 7.4 (adjusted with 1 M NaOH).

α4β3δ GABAA receptor = molecular target: T9, α4β3δ GABAA receptor (Mus musculus, UniProt P63080+Q9D6F4); experiment: as above; assay type: cell-based, murine; conditions: GABA EC50 response, ANOVA Dunnett
T9 construct: expressed in transfected cells; host or cells: HEK cells
Text: as §1

[14] = molecular target: α1β2D162+163Nγ2 GABAA receptor (Mus musculus, UniProt P62812+P63137, D186N/D187N); experiment: cell-based
α1β2γ2 GABAA receptor [15] = molecular target: T2, α1β2γ2 GABAA receptor; conditions: for irreversible reduction/block of GABA current post-UV: one cycle of UV
[16] = molecular target: T7, α1R119Qβ2E155Q+R207Qγ2 GABAA receptor
[17] = molecular target: T10, α1β2R207Qγ2 GABAA receptor (Mus musculus, UniProt P62812+P63137, R231Q)
[18] = molecular target: α1β2D162N,D163Nγ2 GABAA receptor (Mus musculus, UniProt P62812+P63137, D186N/D187N); experiment: cell-based; conditions: HEK293, read-out: maximum GABA current after UV in the presence of GZ-B1, % of control
[19] = molecular target: T11, α1R119Qβ2γ2 GABAA receptor (Mus musculus, UniProt P62812+P63137, R146Q); experiment: cell-based
[20] = molecular target: T5, α1R84Qβ2γ2 GABAA receptor
[21] = molecular target: T10, α1β2R207Qγ2 GABAA receptor; experiment: cell-based
[22] = molecular target: T11, α1R119Qβ2γ2 GABAA receptor; conditions: for Max inhibition: α1R119Qβ2γ2; for potency increase compared with wild type: α1R119Qβ2γ2 vs wild type
[23] = molecular target: T12, α1β2E155Q+R207Qγ2 GABAA receptor (Mus musculus, UniProt P62812+P63137, E179Q/R231Q)
[24] = molecular target: T12, α1β2E155Q+R207Qγ2 GABAA receptor; experiment: cell-based
[25] = molecular target: α1β2E155Qγ2 GABAA receptor (Mus musculus, UniProt P62812+P63137, E179Q); experiment: cell-based
[26] = molecular target: T3, α1β2γ2 (wt) GABAA receptor; conditions: for Max inhibition: inhibition of GABA EC50 response, wt
[27] = molecular target: T6, α1R84+119Qβ2D162+163Nγ2 GABAA receptor; experiment: cell-based; conditions: HEK293, read-out: maximum GABA current after UV in the presence of GZ-B1, % of control
[28] = molecular target: T11, α1R119Qβ2γ2 GABAA receptor; experiment: cell-based; conditions: HEK293, read-out: maximum GABA current after UV in the presence of GZ-B1, % of control
[29] = molecular target: T3, α1β2γ2 (wt) GABAA receptor; design: expressed in transfected cells; host or cells: HEK cells; conditions: α1β2γ2, GABA EC50 response; cited from earlier work
[30] = 10 μM GABA, 10 μM antagonist, one cycle of 10 UV flashes, 3–5 min wash
[31] = IC50, inhibition of GABA EC50 response, α1R119Qβ2γ2
[32] = IC50, α1R119Qβ2γ2, as printed in text
[33] = IC50, inhibition of GABA EC50 response, α1β2R207Qγ2

SMILES | Max inhibition [1] | Kb (α1β2γ2 GABAA receptor [4]) | IC50 [5] | IC50 [10] | IC50 [11] | IC50 [13] | GABA-induced current post-UV, normalized to control (α1β2γ2 GABAA receptor [15]; [30]) | irreversible reduction/block of GABA current post-UV (α1β2γ2 GABAA receptor [15]; 10 μM antagonist) | Max inhibition [16] | Max inhibition [17] | IC50 [19, 31] | IC50 [19, 32] | IC50 [21, 33] | Max inhibition [22] | potency increase compared with wild type [22] | Max inhibition [23] | IC50 [24] | IC50 [25] | Max inhibition [26] | other results
N=c1ccc(-c2ccc(OCc3ccc(C(=O)c4ccccc4)cc3)cc2)nn1CCCC(=O)O [GZ-B1] | 75 ± 2% | 153 nM | 155 nM | 426 nM | 418 nM | > 100000 nM | 50.8±1.8% | ~ 50% | 72 ± 4% | 83 ± 3% | 71.5 nM | 72 nM | 487 nM | 100% | ~ 2 fold | 100% | 470 nM | > 100000 nM | 100% | reduction in synaptic current (sIPSC) amplitude [2]: ≤ 90%; remaining activity at 10 µM (α1β2γ2 GABAA receptor [3]): 62 ± 4.2%; IC50 [6]: 182000 nM; remaining activity at 100 µM [7]: 84 ± 4.9%; IC50 ([8]; IC50, inhibition of GABA EC50 response): 4220 nM; IC50 ([8]; pIC50, inhibition of GABA EC50 response): 4230 nM; IC50 [9]: 258000 nM; reduction (loss) of GZ-B1 potency [12]: 1,000 fold and > 1,000 fold; GZ-B1 potency (IC50) compared with α1β3γ2 (α3β3γ2 GABAA receptor): significantly lower potencies; GZ-B1 potency (IC50) compared with α1β3γ2 (α4β3δ GABAA receptor): significantly lower potencies; IC50 [14]: 13500 nM; remaining activity at 100 µM [18]: 71 ± 2.6%; Max inhibition [20]: 100%; IC50 ([21]; IC50, α1β2R207Qγ2, as printed in text): 487 nM; remaining activity at 100 µM [27]: 97 ± 3.4%; remaining activity at 10 µM [28]: 73 ± 2.6%
N=c1ccc(-c2ccc(OCc3ccccc3)cc2)nn1CCCC(=O)O [GZ-i1] |  | 13 nM |  |  |  |  |  |  |  |  |  |  |  |  |  |  |  |  |  | increase in affinity (Ki) over gabazine (α1β2γ2 GABAA receptor [4]; Schild analysis): 20 fold; increase in potency over gabazine [29]: more than 30 fold
[N-]=[N+]=Nc1ccc(COc2ccc(-c3ccc(=N)n(CCCC(=O)O)n3)cc2)cc1 [GZ-A1] |  | 44 nM |  |  |  |  |  | ~ 30% |  |  |  |  |  |  |  |  |  |  |  | GABA-induced current post-UV, normalized to control (α1β2γ2 GABAA receptor [15]): 71.3±6.8%
COc1ccc(-c2ccc(=N)n(CCCC(=O)O)n2)cc1 [gabazine, reference compound] | 100% | 300 nM | 349 nM | 2260 nM | 3750 nM | > 100000 nM | 101.6±3.3% |  | 94 ± 1% | 100% | 188 nM | 188 nM | 1710 nM | 100% | ~ 2 fold | 100% | 1380 nM | > 100000 nM | 100% | 
N=c1ccc(-c2ccc(OCc3ccc(C4(C(F)(F)F)N=N4)cc3)cc2)nn1CCCC(=O)O [GZ-D1] |  | 132 nM |  |  |  |  | 79.0±4.5% | ~ 20% |  |  |  |  |  |  |  |  |  |  |  | 
N=c1ccc(-c2ccc(C(=O)c3ccccc3)cc2)nn1CCCC(=O)O [GZ-B2] |  | 318 nM |  |  |  |  | 98.3±4.2% |  |  |  |  |  |  |  |  |  |  |  |  | relative potency compared with gabazine ([26]; α1β2γ2, GABA EC50 response): equipotent
